Assay results as given in BindingDB's records for patent US11518761 (Vyera Pharmaceuticals, 2022).
pIC50: −log10 of the molar value.

Molecular target: T1, Calmodulin-domain protein kinase 1 (Toxoplasma gondii, UniProt Q9BJF5)
T1 sequence (Q9BJF5 whole entry): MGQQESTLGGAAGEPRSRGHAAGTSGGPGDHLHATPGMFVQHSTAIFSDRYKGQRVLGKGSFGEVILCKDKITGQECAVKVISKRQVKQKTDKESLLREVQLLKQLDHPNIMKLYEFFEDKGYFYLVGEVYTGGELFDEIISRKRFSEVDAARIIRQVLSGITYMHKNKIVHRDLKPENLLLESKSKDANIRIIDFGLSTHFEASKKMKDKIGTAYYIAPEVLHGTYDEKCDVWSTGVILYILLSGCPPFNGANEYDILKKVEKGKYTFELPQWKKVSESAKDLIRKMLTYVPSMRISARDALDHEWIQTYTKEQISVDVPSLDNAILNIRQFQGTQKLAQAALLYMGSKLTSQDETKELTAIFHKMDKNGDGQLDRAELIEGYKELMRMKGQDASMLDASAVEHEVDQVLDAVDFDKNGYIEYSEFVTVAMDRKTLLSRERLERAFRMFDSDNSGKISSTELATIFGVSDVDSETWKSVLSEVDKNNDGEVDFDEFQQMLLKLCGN
Experiment: Inhibition Assay
Description: Certain of the compounds prepared as described above were assayed to determine their IC50 for inhibition of T. gondii CDPK1 (tgCDPK1). At least three independent replicates of the assay were conducted for each compound tested.

In the case of `N#Cc1cccc(Oc2nn([C@H]3C[C@H](F)C3)c3ncnc(N)c23)c1` [US11518761, Example 173], the pIC50 was 7.30.

`N#Cc1cccc(Oc2nn([C@H]3C[C@H](O)C3)c3ncnc(N)c23)c1` [US11518761, Example 178] gave a pIC50 of 7.10.
